Results published in patent publication US11524045B2, “Peptides for dry eye disease” (ALLYSTA PHARMACEUTICALS, INC., priority 2017, dated 2022).
Entries after “also recorded” stand apart in the source; their conditions may differ.

Tests used:
Assay type in all cases: in vivo, C57BL/6 mice
[1] = system: desiccating stress-induced dry eye (experimental dry eye; EDE); test: Tear film break-up time (TBUT) in mouse model of desiccating stress-induced dry eye; conditions: EDE mice, 5% Lifitegrast or 0.1% SEQ ID NO:1, 2 μL eye drops three times a day, five and 10-day endpoints, vs untreated dry eye (vehicle)
Description: (§1) The following Methods were used to evaluate the efficacy, anti-inflammatory activity and the therapeutic potential of a peptide inhibitor of trans-endothelial migration peptide compared with 5% Lifitegrast in a mouse model of desiccating stress-induced dry eye (experimental dry eye; EDE).
(§2) Desiccating stress was induced in six to eight-week-old female C57BL/6 mice by subcutaneous injection of 0.5 mg/0.2 mL scopolamine hydrobromide (Sigma-Aldrich, St. Louis, Mo.) three times a day ([…] given at 4.5 hr. intervals) with exposure to an air draft and 30% ambient humidity), which was maintained throughout the dosing period. During these experiments, the animals' behavior, food, and water intake were not restricted. Treatment was terminated and testing was conducted at endpoints of either five or ten days.
Each treatment group comprised 5 animals (n=10 eyes/group) randomly assigned. The groups were treated topically as follows: • 1. Untreated (Normal) control mice that were not exposed to desiccating stress or treated topically • 2. EDE mice treated with balanced salt solution (BSS, vehicle, Alcon, Fort Worth, Tex.) • 3. EDE mice treated with 5% (wt) Lifitegrast (Shire Plc) • 4. […]
All treatment groups received 2 μL eye drops three times a day. The mice in each treatment group: EDE treated with BSS, EDE treated with 5% Lifitegrast, and EDE treated with 0.1% SEQ ID NO:1 were dosed/treated three times/day with 2 uL eye drops of each treatment, respectively (except Normal group). […]
After three blinks, tear film break-up time (BUT) was recorded in seconds using slit lamp biomicroscopy (BQ-900; Haag-Streit, Bern, Switzerland) under cobalt blue light. […]
Tear Film Break-up: This experiment evaluated the anti-inflammatory activity and efficacy of the peptide inhibitor of trans-endothelial migration peptide in ameliorating Desiccation-induced Dry Eye (DED). Eyes were evaluated for time for dry spots to appear on the corneal surface of the eye after blinking. […] Subjects with normal tear quantity but an unstable tear film can explain dry eye symptoms. […]

[2] = system: desiccating stress-induced dry eye (experimental dry eye; EDE); test: Corneal fluorescein staining in mouse model of desiccating stress-induced dry eye; conditions: EDE mice; 5% Lifitegrast or 0.1% SEQ ID NO:1, 2 μL eye drops three times a day; five and ten days; vs untreated dry eyes
Description: as §1, §2
Each treatment group comprised 5 animals (n=10 eyes/group) randomly assigned. […]
Ninety seconds after the fluorescein drops were added to measure TBUT, punctate staining on the corneal surface was evaluated in a masked fashion. Each cornea was divided into four quadrants that were scored individually. Corneal fluorescein staining severity score was calculated using a 4-point scale: 0=absent; 1=slightly punctate staining <30 spots; 2=punctate staining >30 spots, but not diffuse; 3=severe diffuse staining but no positive plaque; and 4=positive fluorescein plaque. […]

[3] = system: CD4+ and CCR5+ T cells from the conjunctiva; test: Flow cytometry of activated T cells from the conjunctiva in murine dry eye model; conditions: EDE mice; 0.1% SEQ ID NO:1 eye drops three times a day; after 10 days; normal range 15% to 22%, normal control 18.86%
Description: as §1, §2
Each treatment group comprised 5 animals (n=10 eyes/group) randomly assigned. The groups were treated topically as follows: • 1. […]
Flow cytometry was performed for quantitation of CD4+ and CCR5+ T cells from the conjunctiva as previously described (Yoon K C, Heo H, Kang I S, et al. Cornea (2008) 27: 454-460). […]
The number of CD4+ and CCR5+ T cells was counted by a FACSCalibur cytometer with CellQuest software (BD Biosciences).
Eye conjunctiva was evaluated for the number of Activated T cells present in the conjunctiva for each group in the murine Dry Eye study. […]

Compound | tear film break-up time [1] | corneal fluorescein staining grade (corneal disruptions) [2] | tear film break-up time ([1]; listed as peptide inhibitor of trans-endothelial migration peptide) | percentage of Activated T Cells within the conjunctiva [3] [%]
CS(=O)(=O)c1cccc(C[C@H](NC(=O)c2c(Cl)cc3c(c2Cl)CCN(C(=O)c2ccc4ccoc4c2)C3)C(=O)O)c1 [Lifitegrast, reference compound] | can ameliorate induced dry eye; also recorded: can ameliorate DED | improved corneal disruptions |  | 
H-Ser-Val-Thr-Glu-Gln-Gly-Ala-Glu-Leu-Ser-Asn-Glu-Glu-Arg-NH2 (H-SVTEQGAELSNEER-NH2) [SEQ ID NO:1] | noticeably improved tear film times at both endpoints | improved corneal disruptions | noticeably improved tear film times at both intervals | 21.67
